According to patent US9725449B2, “Tricyclic compounds as anticancer agents” (BRISTOL-MYERS SQUIBB COMPANY, priority 2015, dated 2017):

These compounds were tested against BRD4 (Homo sapiens, UniProt O60885) (assay: Time resolved fluorescence resonance energy transfer (TR-FRET) binding assay, bromodomain BRD4). Conditions: one of the FRET assays described; read-out: FRET BRD4 IC50.

Row | SMILES | IC50
1 | [2H]C([2H])([2H])N1CCN(c2ccc3c4ncc(-c5c(C)nnn5C)cc4n([C@H](c4ccccc4F)C4CCOCC4)c3n2)CC1 [Example 250, 5-(Dimethyl-1H-1,2,3-triazol-5-yl)-8-[(S)-(2-fluorophenyl)(oxan-4-yl)methyl]-11-[4-(^2H3)methylpiperazin-1-yl]-3,8,10-triazatricyclo[7.4.0.0^2,^7]trideca-1(13),2(7),3,5,9,11-hexaene] | < 10 nM
2 | Cc1nnn(C)c1-c1cnc2c3cnc(C(C)(C)O)cc3n([C@H](c3ccccc3)C3CCOCC3)c2c1 [Example 285, 2-[5-(Dimethyl-1H-1,2,3-triazol-5-yl)-8-[(S)-oxan-4-yl(phenyl)methyl]-3,8,12-triazatricyclo[7.4.0.0^2,^7]trideca-1(9),2(7),3,5,10,12-hexaen-11-yl]propan-2-ol] | < 1 nM
3 | [2H]C([2H])([2H])c1nnn(C)c1-c1cnc2c3c(OC(C)C)nccc3n([C@H](c3ccccc3)C3CCOCC3)c2c1 [Example 131, 5-[4-(^2H3)Methyl-1-methyl-1H-1,2,3-triazol-5-yl]-8-[(S)-oxan-4-yl(phenyl)methyl]-13-(propan-2-yloxy)-3,8,12-triazatricyclo[7.4.0.0^2,^7]trideca-1(13),2(7),3,5,9,11-hexaene] | < 10 nM
4 | Cc1nnn(C)c1-c1cnc2c3ccc(N4CC(O)C4)nc3n([C@H](c3ccccc3)C3CCOCC3)c2c1 [Example 179, 1-[5-(Dimethyl-1H-1,2,3-triazol-5-yl)-8-[(S)-oxan-4-yl(phenyl)methyl]-3,8,10-triazatricyclo[7.4.0.0^2,^7]trideca-1(9),2(7),3,5,10,12-hexaen-11-yl]azetidin-3-ol] | < 1 nM
5 | COc1nccc2c3ncc(-c4c(C)nnn4C)cc3n(C(c3cccc(F)c3)C3CCOCC3)c12 (single isomer, unassigned) [Example 20, 5-(Dimethyl-1H-1,2,3-triazol-5-yl)-8-[(3-fluorophenyl)(oxan-4-yl)methyl]-10-methoxy-3,8,11-triazatricyclo[7.4.0.0^2,^7]trideca-1(13),2(7),3,5,9,11-hexaene] | < 10 nM
6 | [2H]C([2H])([2H])c1nnn(C)c1-c1cnc2c3ccc(N(C)C)nc3n([C@H](c3ccccc3F)C3CCOCC3)c2c1 [Example 238, 8-[(S)-(2-Fluorophenyl)(oxan-4-yl)methyl]-N,N-dimethyl-5-[4-(^2H3)methyl-1-methyl-1H-1,2,3-triazol-5-yl]-3,8,10-triazatricyclo[7.4.0.0^2,^7]trideca-1(13),2(7),3,5,9,11-hexaen-11-amine] | < 10 nM
7 | COc1ncc(S(C)(=O)=O)c2c1c1ncc(-c3c(C)noc3C)cc1n2[C@H](c1ccccc1F)C1CCOCC1 [Example 48, 5-(Dimethyl-1,2-oxazol-4-yl)-8-[(S)-(2-fluorophenyl)(oxan-4-yl)methyl]-10-methanesulfonyl-13-methoxy-3,8,12-triazatricyclo[7.4.0.0^2,^7]trideca-1(13),2(7),3,5,9,11-hexaene] | < 1 nM
8 | [2H]C([2H])([2H])c1nnn(C)c1-c1cnc2c3c(OC(C)C)ncc(S(C)(=O)=O)c3n([C@H](c3ccccc3F)C3CCOCC3)c2c1 [Example 80, 8-[(S)-(2-Fluorophenyl)(oxan-4-yl)methyl]-10-methanesulfonyl-5-[4-(^2H3)methyl-1-methyl-1H-1,2,3-triazol-5-yl]-13-(propan-2-yloxy)-3,8,12-triazatricyclo[7.4.0.0^2,^7]trideca-1(13),2(7),3,5,9,11-hexaene] | < 1 nM
9 | Cc1noc(C)c1-c1cnc2c3cnc(Cl)cc3n(C(c3ccc(Cl)cn3)C3CCOCC3)c2c1 (single isomer, unassigned) [Example 327] | < 1500 nM
10 | [2H]C([2H])([2H])c1nnn(C)c1-c1cnc2c3cncc(C(C)(C)O)c3n([C@H](c3ccccc3)C3CCOCC3)c2c1 [Example 291, 2-{5-[4-(^2H3)Methyl-1-methyl-1H-1,2,3-triazol-5-yl]-8-[(S)-oxan-4-yl(phenyl)methyl]-3,8,12-triazatricyclo[7.4.0.0^2,^7]trideca-1(9),2,4,6,10,12-hexaen-10-yl}propan-2-ol] | < 1 nM
11 | Cc1nnn(C)c1-c1cnc2c3cnc(-c4c(C)nnn4C)nc3n([C@H](c3ccccc3)C3CCOCC3)c2c1 [Example 155, 5,11-Bis(dimethyl-1H-1,2,3-triazol-5-yl)-8-[(S)-oxan-4-yl(phenyl)methyl]-3,8,10,12-tetraazatricyclo[7.4.0.0^2,^7]trideca-1(9),2(7),3,5,10,12-hexaene] | < 10 nM
12 | Cc1nnn(C)c1-c1cnc2c3c(O)ncc(S(C)(=O)=O)c3n([C@H](c3ccccc3)C3CCOCC3)c2c1 [Example 93, 5-(Dimethyl-1H-1,2,3-triazol-5-yl)-10-methanesulfonyl-8-[(S)-oxan-4-yl(phenyl)methyl]-3,8,12-triazatricyclo[7.4.0.0^2,^7]trideca-1(13),2(7),3,5,9,11-hexaen-13-ol] | < 10 nM
13 | Cc1nnn(C)c1-c1cnc2c3ccc(N4CCOCC4)nc3n([C@H](c3ccccc3)C3CCOCC3)c2c1 [Example 178, 5-(Dimethyl-1H-1,2,3-triazol-5-yl)-11-(morpholin-4-yl)-8-[(S)-oxan-4-yl(phenyl)methyl]-3,8,10-triazatricyclo[7.4.0.0^2,^7]trideca-1(9),2(7),3,5,10,12-hexaene] | < 1 nM
14 | [2H]C([2H])([2H])c1nnn(C)c1-c1cnc2c3c(OC)nc(C(C)=O)cc3n([C@@H](c3ncccc3F)C3CCOCC3)c2c1 [Example 310, 1-{8-[(R)-(3-Fluoropyridin-2-yl)(oxan-4-yl)methyl]-13-methoxy-5-[4-(^2H3)methyl-1-methyl-1H-1,2,3-triazol-5-yl]-3,8,12-triazatricyclo[7.4.0.0^2,^7]trideca-1(9),2(7),3,5,10,12-hexaen-11-yl}ethan-1-one] | < 10 nM
15 | C=C(OCC)c1ccc2c3ncc(-c4c(C)nnn4C)cc3n([C@H](c3ccccc3)C3CCOCC3)c2n1 [Example 170, 5-(Dimethyl-1H-1,2,3-triazol-5-yl)-1-(1-ethoxyethenyl)-8-[(S)-oxan-4-yl(phenyl)methyl]-3,8,10-triazatricyclo[7.4.0.0^2,^7]trideca-1(9),2(7),3,5,10,12-hexaene] | < 10 nM
16 | Cc1nnn(C)c1-c1cnc2c3ccc(-c4cnn(C(C)C)c4)nc3n([C@H](c3ccccc3)C3CCOCC3)c2c1 [Example 149, 5-(Dimethyl-1H-1,2,3-triazol-5-yl)-8-[(S)-oxan-4-yl(phenyl)methyl]-11-[1-(propan-2-yl)-1H-pyrazol-4-yl]-3,8,10-triazatricyclo[7.4.0.0^2,^7]trideca-1(13),2(7),3,5,9,11-hexaene] | < 10 nM
17 | Cc1nnn(C)c1-c1cnc2c3cnc(C#N)nc3n([C@H](c3ccccc3)C3CCOCC3)c2c1 [Example 143, 5-(Dimethyl-1H-1,2,3-triazol-5-yl)-8-[(S)-oxan-4-yl(phenyl)methyl]-3,8,10,12-tetraazatricyclo[7.4.0.0^2,^7]trideca-1(9),2(7),3,5,10,12-hexaene-11-carbonitrile] | < 1500 nM
18 | Cc1nnn(C)c1-c1cnc2c3c(NS(=O)(=O)CC4CC4)ncc(S(C)(=O)=O)c3n([C@H](c3ccccc3)C3CCOCC3)c2c1 [Example 104, 1-Cyclopropyl-N-[5-(dimethyl-1H-1,2,3-triazol-5-yl)-10-methanesulfonyl-8-[(S)-oxan-4-yl(phenyl)methyl]-3,8,12-triazatricyclo[7.4.0.0^2,^7]trideca-1(13),2(7),3,5,9,11-hexaen-13-yl]methanesulfonamide] | < 10 nM
19 | [2H]C([2H])([2H])c1nnn(C)c1-c1cnc2c3ccc(N4CC(C)S(=O)(=O)C(C)C4)nc3n([C@H](c3ccccc3)C3CCOCC3)c2c1 (stereo partly drawn) [Example 193, 2,6-Dimethyl-4-{5-[4-(^2H3)methyl-1-methyl-1H-1,2,3-triazol-5-yl]-8-[(S)-oxan-4-yl(phenyl)methyl]-3,8,10-triazatricyclo[7.4.0.0^2,^7]trideca-1(9),2(7),3,5,10,12-hexaen-11-yl}-1λ^6,4-thiomorpholine-1,1-dione] | < 1 nM
20 | [2H]C([2H])([2H])c1nnn(C)c1-c1cnc2c3c(OCC)ncc(S(C)(=O)=O)c3n(C(c3ncccc3F)C3CCC(F)(F)CC3)c2c1 (stereo not drawn) [Example 75, 8-[(4,4-Difluorocyclohexyl)(3-fluoropyridin-2-yl)methyl]-13-ethoxy-10-methanesulfonyl-5-[4-(^2H3)methyl-1-methyl-1H-1,2,3-triazol-5-yl]-3,8,12-triazatricyclo[7.4.0.0^2,^7]trideca-1(13),2(7),3,5,9,11-hexaene] | < 1500 nM
21 | Cc1nnn(C)c1-c1cnc2c3ccc(C(C)(C)O)nc3n([C@H](c3ccccc3)C3CCOCC3)c2c1 [Example 174, 2-[5-(Dimethyl-1H-1,2,3-triazol-5-yl)-8-[(S)-oxan-4-yl(phenyl)methyl]-3,8,10-triazatricyclo[7.4.0.0^2,^7]trideca-1(9),2(7),3,5,10,12-hexaen-11-yl]propan-2-ol] | < 1 nM
22 | Cc1nnn(C)c1-c1cnc2c3ccnc(N4CCN(C)CC4)c3n([C@H](c3ccccc3)C3CCOCC3)c2c1 [Example 8, 5-(Dimethyl-1H-1,2,3-triazol-5-yl)-10-(4-methylpiperazin-1-yl)-8-[(S)-oxan-4-yl(phenyl)methyl]-3,8,11-triazatricyclo[7.4.0.0^2,^7]trideca-1(13),2(7),3,5,9,11-hexaene] | < 10 nM
23 | [2H]C([2H])([2H])c1onc(C)c1-c1cnc2c3cnc(C(C)(C)O)cc3n([C@H](c3ccc(F)cc3)C3CCOCC3)c2c1 [Example 225, 2-{8-[(S)-(4-Fluorophenyl)(oxan-4-yl)methyl]-5-[5-(^2H3)methyl-3-methyl-1,2-oxazol-4-yl]-3,8,12-triazatricyclo[7.4.0.0^2,^7]trideca-1(13),2(7),3,5,9,11-hexaen-11-yl}propan-2-ol] | < 1 nM
24 | Cc1nnn(C)c1-c1cnc2c3ccc(N4CCC(C)(O)CC4)nc3n([C@H](c3ccccc3)C3CCOCC3)c2c1 [Example 180, 1-[5-(Dimethyl-1H-1,2,3-triazol-5-yl)-8-[(S)-oxan-4-yl(phenyl)methyl]-3,8,10-triazatricyclo[7.4.0.0^2,^7]trideca-1(9),2(7),3,5,10,12-hexaen-11-yl]-4-methylpiperidin-4-ol] | < 1 nM
